pIC50: −log10 of the molar value.
What was measured:
[1] = tested on: CAL-33 (H1047R PI3Kα) HNSCC xenograft; assay: CAL-33 xenograft efficacy study; format: in vivo, mouse; details: Alpelisib 50 mg/kg QD, Day 28
[2] = tested on: pAKT (S473) in panel of human tumor cell lines harboring PI3Kα kinase-domain mutations and SKBR3; assay: pAKT (S473) HTRF, human tumor cell line panel; format: cell-based; details: SK-BR-3, 1 hour treatment, read-out: pAKT IC50 values across the panel of cell lines
Experimental: (§1) A 384-well phospho-AKT (S473) HTRF (Homogenous Time-Resolve Fluorescence; PerkinElmer, #64AKSPEH) assay was used for target engagement. Each well was seeded with cell numbers indicated in Supplementary Table S3 in a volume of 12.5 μL in complete, phenol red-free media and then treated for 1 hour at 37°C with 5% CO2 before reading on a PHERAstar plate reader.

[3] = Tolerability measures in CDX studies: body weight and insulin 1 hour after dose; details: for Δ Insulin: Alpelisib 50 mg/kg QD, one-hour post dose
[4] = tested on: pAKT (S473) in CAL148 cells; assay: pAKT (S473) HTRF; format: cell-based; details: Homo sapiens, CAL-148; CAL148, H1047R + D350N; 1 hour; read-out: pAKT HTRF GMean IC50 (95% CI)
Experimental: as §1

[5] = tested on: pAKT (S473) in OAW42 cells; assay: pAKT (S473) HTRF; format: cell-based; details: Homo sapiens, OAW-42; OAW42, H1047L; 1 hour; read-out: pAKT HTRF GMean IC50 (95% CI)
Experimental: as §1

[6] = tested on: pAKT (S473) in GP2D cells; assay: pAKT (S473) HTRF; format: cell-based; details: Homo sapiens, H1047L, 1 hour, read-out: pAKT HTRF GMean IC50 (95% CI)
Experimental: as §1

[7] = tested on: pAKT (S473) in EFM19 cells; assay: pAKT (S473) HTRF; format: cell-based; details: Homo sapiens, EFM-19; EFM19, H1047L; 1 hour; read-out: pAKT HTRF GMean IC50 (95% CI)
Experimental: as §1

[8] = tested on: pAKT (S473) in SKBR3 cells; assay: pAKT (S473) HTRF; format: cell-based; details: Homo sapiens, SK-BR-3; SKBR3, WT PI3Kα; 1 hour; read-out: pAKT HTRF GMean IC50 (95% CI)
Experimental: as §1

[9] = tested on: pAKT (S473) in DETROIT562 cells; assay: pAKT (S473) HTRF; format: cell-based; details: Homo sapiens, Detroit 562; DETROIT562, H1047R; 1 hour; read-out: pAKT HTRF GMean IC50 (95% CI)
Experimental: as §1

[10] = tested on: pAKT (S473) in BT20 cells; assay: pAKT (S473) HTRF; format: cell-based; details: Homo sapiens, BT-20; BT20, H1047R + P539R; 1 hour; read-out: pAKT HTRF GMean IC50 (95% CI)
Experimental: as §1

[11] = tested on: pAKT (S473) in HCC1954 cells; assay: pAKT (S473) HTRF; format: cell-based; details: Homo sapiens; HCC1954, H1047R; 1 hour; read-out: pAKT HTRF GMean IC50 (95% CI)
Experimental: as §1

[12] = tested on: pAKT (S473) in CAL33 cells; assay: pAKT (S473) HTRF; format: cell-based; details: Homo sapiens, CAL-33; CAL33, H1047R; 1 hour; read-out: pAKT HTRF GMean IC50 (95% CI)
Experimental: as §1

[13] = tested on: pAKT (S473) in NCIH1048 cells; assay: pAKT (S473) HTRF; format: cell-based; details: Homo sapiens, NCI-H1048; NCIH1048, H1047R + K111R; 1 hour; read-out: pAKT HTRF GMean IC50 (95% CI)
Experimental: as §1

[14] = tested on: pAKT (S473) in T47D cells; assay: pAKT (S473) HTRF; format: cell-based; details: Homo sapiens, 1 h, read-out: pAKT HTRF GMean IC50 (95% CI)
Experimental: as §1

[15] = tested on: NCI-H1048 lung carcinoma xenograft; assay: NCI-H1048 xenograft efficacy study; format: in vivo, mouse; details: Alpelisib 50 mg/kg QD, Day 23
[16] = alpelisib with ribociclib and fulvestrant, in the clinic; cited from earlier work
[17] = tested on: pAKT (S473) in CAL-33 tumors; assay: CAL-33 tumor PK/PD, pAKT/AKT Western blot; format: in vivo, mouse; details: 50 mg/kg q.d.
[18] = tested on: glucose oxidation in tumor and skeletal muscle; assay: [U-13C]-glucose metabolic profiling in CAL-33 tumor-bearing mice; format: in vivo, mouse; details: alpelisib 50 mg/kg; 30 minutes after [U-13C]-glucose
[19] = tested on: Detroit 562 HNSCC xenograft; assay: Detroit 562 xenograft efficacy study; format: in vivo, mouse
[20] = tested on: T47D ER+HER2- breast cancer xenograft; assay: T47D xenograft efficacy study; format: in vivo, mouse; details: Alpelisib 50 mg/kg QD, Day 20
[21] = cited from earlier work
[22] = tested on: GP2d colon cancer xenograft; assay: GP2d xenograft efficacy study; format: in vivo, mouse
[23] = tested on: insulin-mediated glucose uptake in primary human subcutaneous adipocytes; assay: Human adipocyte 3H-2-deoxyglucose uptake; format: cell-based
Experimental: Primary human subcutaneous adipocytes were treated with a test compound or vehicle for 1 hour followed by the addition of 10 nmol/L insulin and ^3H-2-deoxyglucose (Zen Bio Durham, assay #CA-25, Lot #SL0071). Cytochalasin B treatment controlled for nonspecific glucose uptake. Corrected counts per minute were determined using a scintillation counter.

Plasma exposure in mice = format: in vivo, mouse
[24] = Insulin tolerance test (ITT) and oral glucose tolerance test (OGTT); format: in vivo, mouse; details: 50 mg/kg dose levels
[25] = tested on: HCC1954 breast cancer xenograft; assay: HCC1954 xenograft efficacy study; format: in vivo, mouse; details: Alpelisib 50 mg/kg QD, Day 28
[26] = STX-478 100 mg/kg q.d., alpelisib 50 mg/kg q.d.

With `Cc1nc(NC(=O)N2CCC[C@H]2C(N)=O)sc1-c1ccnc(C(C)(C)C(F)(F)F)c1` [alpelisib] the “TGI (%)” value [1] was 79%, the pIC50 [2] was 6.57 to 7.55 and the “Δ Insulin” value ([3]; Cal33 model) was “+1.07 ng/mL”. For the same compound, the “Δ Insulin” value ([3]; Detroit 562 model) was “+2.33 ng/mL”, the “Δ Insulin” value ([3]; GP2D model) was “+1.59 ng/mL” and the “Δ Insulin” value ([3]; HCC1954 model) was “+2.38 ng/mL”. For the same compound, the “Δ Insulin” value ([3]; NCI-H1048 model) was “+1.21 ng/mL”, the “effects on body weight across studies” value [3, 26] was “No treatment-specific effects on body weight” and the “Δ Insulin” value ([3]; T-47D model) was “+0.79 ng/mL”. For the same compound, the pIC50 [4] was 6.57, the pIC50 [5] was 7.09 and the pIC50 [6] was 7.18. For the same compound, the pIC50 [7] was 7.37, the pIC50 [8] was 7.39 and the pIC50 [9] was 6.90. It also gave a pIC50 [10] of 6.87, a pIC50 [11] of 6.59 and a pIC50 [12] of 7.15. The pIC50 [13] was 7.55, the pIC50 [14] was 7.24 and the “TGI (%)” value [15] was 87%. The “tolerability of triple combination” value [16] was “not tolerated in the clinic”, the “average pAKT suppression (treated/vehicle AUC1–12h)” value [17] was 66% and the “glucose oxidation in skeletal muscle” value [18] was “reductions in glucose oxidation in the skeletal muscle”. The “TGI (%)” value ([19]; Alpelisib 50 mg/kg QD, Day 22) was 96%, the tumor regressions [19, 26] was “tumor regressions in five of the nine study animals” and the “TGI (%)” value [20] was 100%. For the same compound, the “exposure of the maximum approved human dose (AUC)” value [21] was ~33,000 ng*h/mL, the “TGI (%)” value ([22]; Alpelisib 50 mg/kg QD, Day 28) was 79% and the “tumor regressions (waterfall plot)” value [22, 26] was “no regression”. For the same compound, the glucose uptake inhibition ([23]; 10 μmol/L) was “nearly complete inhibition”, the Emax ([23]; Homo sapiens, Adipocyte, 10 nmol/L insulin, read-out: maximum effect (Emax) for glucose uptake inhibition) was 88% and the “mouse exposure over exposure of maximum approved human dose” value (Plasma exposure in mice; 50 mg/kg q.d. in mice) was “approximately 2 fold”. The AUC (Plasma exposure in mice; mouse, plasma, oral, mice, 50 mg/kg q.d.) was roughly 75000 ng·h/mL, the insulin resistance [24] was “overt insulin resistance” and the “TGI (%)” value [25] was 77%.

— PMC10618743 (Cancer Discovery, 2023)
